# Patent US20240108602A1, “TREATMENT OF MENTAL DISORDERS” (GH Research Ireland Limited, priority 2022, published 2024)
# Test system: patients with postpartum depression (PPD)
# Experiment: Clinical trial of inhaled 5-MeO-DMT (IDR) in patients with postpartum depression
# Experimental: The single-arm, open-label clinical trial will involve 15 adult female patients with clinically diagnosed postpartum depression (PPD).
# The second dose (12 mg) will only be administered if: • a. A peak experience (total score of ≥75) has not been achieved following the 6 mg dose, and • b. The 6 mg dose was safe and well-tolerated according to the investigator, • c. Any psychoactive effects (PsE) of the prior dose have subsided, and • d. Pre-dose vital parameters and forced expiratory volume in one second (FEV1) are in normal range, or if outside of the normal range, are not clinically significant according to the investigator. • 3. Similarly, a third dose (18 mg) will only be administered if: • a. A peak experience (total score of ≥75) has not been achieved following the 12 mg dose, and • b. The 12 mg dose was safe and well-tolerated according to the investigator, and • c. Any PsE of the prior dose have subsided, and • d. Pre-dose vital parameters and forced expiratory volume in one second (FEV1) are in normal range, or if outside of the normal range, are not clinically significant according to the investigator.
# The patients will be assessed for a peak psychedelic experience (based on a patient-scored visual analogue scale, the PE scale), sedation, and other endpoints after dosing.
# Follow-up visits are planned for Day 1, and Day 7 after the dosing day.
# The following criteria must be met by all patients considered for clinical trial participation: • 1. Is female and in the age range between 18 and 45 years (inclusive) at screening. • 2. Has a body mass index (BMI) in the range of 18.5 and 35 kg/m^2 (inclusive) at screening. • 3. Meets the trial criteria for PPD as assessed by a trial psychiatrist or registered psychologist: • a. Diagnosis of Major Depressive Disorder without psychotic features, confirmed by the Mini-International Neuropsychiatric Interview (MINI), with peri-partum onset that began no earlier than gestation and no later than the first 4 weeks postpartum. • b. Has a Montgomery-Åsberg Depression Rating Scale (MADRS) total score of equal to or greater than 28 at screening and pre-dose on Day 0. • 6. […] Patients must have a negative pregnancy test at screening and on the pre-test day (Day−1). • 5. Is willing to delay start of other antidepressant or anxiety medication until after the end of the trial at Day 7 and agrees to keep any psychotherapy unchanged during the trial.
smiles,measurement,setting,value
COc1ccc2[nH]cc(CCN(C)C)c2c1 [5-MeO-DMT],"ECG, safety laboratory analyses, CADSS",PPD patient 1,unremarkable
same,MADRS response (at least 50% improvement) and MADRS remission (total score 10 or less),PPD patient 1,fulfilled standard criteria
same,"reported adverse events (mild, resolved spontaneously)",PPD patient 1,cramping left abdominal pain and headache
same,MADRS Apparent sadness improvement,"PPD patient 1, 2 hr",5
same,MADRS Apparent sadness score,"PPD patient 1, 2 hr",0
same,MADRS Concentration Difficulties improvement,"PPD patient 1, 2 hr",0
same,MADRS Concentration Difficulties score,"PPD patient 1, 2 hr",0
same,MADRS Inability to Feel improvement,"PPD patient 1, 2 hr",3
same,MADRS Inability to Feel score,"PPD patient 1, 2 hr",0
same,MADRS Inner Tension improvement,"PPD patient 1, 2 hr",5
same,MADRS Inner Tension score,"PPD patient 1, 2 hr",0
same,MADRS Lassitude improvement,"PPD patient 1, 2 hr",3
same,MADRS Lassitude score,"PPD patient 1, 2 hr",0
same,MADRS Pessimistic Thoughts improvement,"PPD patient 1, 2 hr",4
same,MADRS Pessimistic Thoughts score,"PPD patient 1, 2 hr",0
same,MADRS Reduced Sleep improvement,"PPD patient 1, 2 hr",0
same,MADRS Reduced Sleep score,"PPD patient 1, 2 hr",5
same,MADRS Reduced appetite improvement,"PPD patient 1, 2 hr",0
same,MADRS Reduced appetite score,"PPD patient 1, 2 hr",0
same,MADRS Reported sadness improvement,"PPD patient 1, 2 hr",4
same,MADRS Reported sadness score,"PPD patient 1, 2 hr",0
same,MADRS Suicidal Thoughts improvement,"PPD patient 1, 2 hr",0
same,MADRS Suicidal Thoughts score,"PPD patient 1, 2 hr",0
same,Total MADRS improvement,"PPD patient 1, 2 hr",24
same,Total MADRS score,"PPD patient 1, 2 hr",5
same,BPRS Anxiety improvement,"PPD patient 1, Day 1",6
same,BPRS Anxiety score,"PPD patient 1, Day 1",1
same,BPRS Blunted affect improvement,"PPD patient 1, Day 1",0
same,BPRS Blunted affect score,"PPD patient 1, Day 1",1
same,BPRS Conceptual disorganization improvement,"PPD patient 1, Day 1",0
same,BPRS Conceptual disorganization score,"PPD patient 1, Day 1",1
same,BPRS Depressive Mood improvement,"PPD patient 1, Day 1",5
same,BPRS Depressive Mood score,"PPD patient 1, Day 1",1
same,BPRS Disorientation improvement,"PPD patient 1, Day 1",0
same,BPRS Disorientation score,"PPD patient 1, Day 1",1
same,BPRS Emotional withdrawal improvement,"PPD patient 1, Day 1",4
same,BPRS Emotional withdrawal score,"PPD patient 1, Day 1",1
same,BPRS Excitement improvement,"PPD patient 1, Day 1",1
same,BPRS Excitement score,"PPD patient 1, Day 1",1
same,BPRS Grandiosity improvement,"PPD patient 1, Day 1",0
same,BPRS Grandiosity score,"PPD patient 1, Day 1",1
same,BPRS Guilt feelings improvement,"PPD patient 1, Day 1",5
same,BPRS Guilt feelings score,"PPD patient 1, Day 1",1
same,BPRS Hallucinatory behaviour improvement,"PPD patient 1, Day 1",0
same,BPRS Hallucinatory behaviour score,"PPD patient 1, Day 1",1
same,BPRS Hostility improvement,"PPD patient 1, Day 1",0
same,BPRS Hostility score,"PPD patient 1, Day 1",1
same,BPRS Mannerisms and Posturing improvement,"PPD patient 1, Day 1",0
same,BPRS Mannerisms and Posturing score,"PPD patient 1, Day 1",1
same,BPRS Motor retardation improvement,"PPD patient 1, Day 1",0
same,BPRS Motor retardation score,"PPD patient 1, Day 1",1
same,BPRS Somatic Concern improvement,"PPD patient 1, Day 1",5
same,BPRS Somatic Concern score,"PPD patient 1, Day 1",1
same,BPRS Suspiciousness improvement,"PPD patient 1, Day 1",0
same,BPRS Suspiciousness score,"PPD patient 1, Day 1",1
same,BPRS Tension improvement,"PPD patient 1, Day 1",5
same,BPRS Tension score,"PPD patient 1, Day 1",1
same,BPRS Uncooperativeness improvement,"PPD patient 1, Day 1",0
same,BPRS Uncooperativeness score,"PPD patient 1, Day 1",1
same,BPRS Unusual Thought Content improvement,"PPD patient 1, Day 1",0
same,BPRS Unusual Thought Content score,"PPD patient 1, Day 1",1
same,MADRS Apparent sadness improvement,"PPD patient 1, Day 1",5
same,MADRS Apparent sadness score,"PPD patient 1, Day 1",0
same,MADRS Concentration Difficulties improvement,"PPD patient 1, Day 1",0
same,MADRS Concentration Difficulties score,"PPD patient 1, Day 1",0
same,MADRS Inability to Feel improvement,"PPD patient 1, Day 1",3
same,MADRS Inability to Feel score,"PPD patient 1, Day 1",0
same,MADRS Inner Tension improvement,"PPD patient 1, Day 1",5
same,MADRS Inner Tension score,"PPD patient 1, Day 1",0
same,MADRS Lassitude improvement,"PPD patient 1, Day 1",3
same,MADRS Lassitude score,"PPD patient 1, Day 1",0
same,MADRS Pessimistic Thoughts improvement,"PPD patient 1, Day 1",4
same,MADRS Pessimistic Thoughts score,"PPD patient 1, Day 1",0
same,MADRS Reduced Sleep improvement,"PPD patient 1, Day 1",5
same,MADRS Reduced Sleep score,"PPD patient 1, Day 1",0
same,MADRS Reduced appetite improvement,"PPD patient 1, Day 1",0
same,MADRS Reduced appetite score,"PPD patient 1, Day 1",0
same,MADRS Reported sadness improvement,"PPD patient 1, Day 1",4
same,MADRS Reported sadness score,"PPD patient 1, Day 1",0
same,MADRS Suicidal Thoughts improvement,"PPD patient 1, Day 1",0
same,MADRS Suicidal Thoughts score,"PPD patient 1, Day 1",0
same,Total MADRS improvement,"PPD patient 1, Day 1",29
same,Total MADRS score,"PPD patient 1, Day 1",0
same,BIMF TOTAL Δ vs Day 0,"PPD patient 1, Day 7",13
same,BIMF domain Adjustment % Improvement,"PPD patient 1, Day 7",20.00%
same,BIMF domain Adjustment score,"PPD patient 1, Day 7",6
same,BIMF domain Adjustment Δ vs Day 0,"PPD patient 1, Day 7",1
same,BIMF domain Infant Care % Improvement,"PPD patient 1, Day 7",0.00%
same,BIMF domain Infant Care score,"PPD patient 1, Day 7",12
same,BIMF domain Infant Care Δ vs Day 0,"PPD patient 1, Day 7",0
same,BIMF domain Management % Improvement,"PPD patient 1, Day 7",18%
same,BIMF domain Management score,"PPD patient 1, Day 7",33
same,BIMF domain Management Δ vs Day 0,"PPD patient 1, Day 7",5
same,BIMF domain Mother-Child Interaction score,"PPD patient 1, Day 7",17
same,BIMF domain Mother-Child Interaction Δ vs Day 0,"PPD patient 1, Day 7",2
same,BIMF domain Psychological Well-being score,"PPD patient 1, Day 7",53
same,BIMF domain Psychological Well-being Δ vs Day 0,"PPD patient 1, Day 7",9
same,BIMF domain Self-Care % Improvement,"PPD patient 1, Day 7",44%
same,BIMF domain Self-Care score,"PPD patient 1, Day 7",13
same,BIMF domain Self-Care Δ vs Day 0,"PPD patient 1, Day 7",4
same,BIMF domain Social Support score,"PPD patient 1, Day 7",18
same,BIMF domain Social Support Δ vs Day 0,"PPD patient 1, Day 7",1
same,BIMF item 1 (I am a good mother) score,"PPD patient 1, Day 7",6
same,BIMF item 1 Δ vs Day 0,"PPD patient 1, Day 7",0
same,BIMF item 2 (I feel rested) score,"PPD patient 1, Day 7",2
same,BIMF item 2 Δ vs Day 0,"PPD patient 1, Day 7",2
same,BIMF item 3 (comfortable with the way I've chosen to feed my baby) score,"PPD patient 1, Day 7",6
same,BIMF item 3 Δ vs Day 0,"PPD patient 1, Day 7",0
same,BIMF item 4 (My baby and I understand each other) score,"PPD patient 1, Day 7",5
same,BIMF item 4 Δ vs Day 0,"PPD patient 1, Day 7",0
same,BIMF item 5 (able to relax and enjoy time with my baby) score,"PPD patient 1, Day 7",6
same,BIMF item 5 Δ vs Day 0,"PPD patient 1, Day 7",1
same,BIMF item 6 (people I can trust to care for my baby when I need a break) score,"PPD patient 1, Day 7",6
same,BIMF item 6 Δ vs Day 0,"PPD patient 1, Day 7",0
same,BIMF item 7 Δ vs Day 0,"PPD patient 1, Day 7",0
same,BIMF item 8 (getting enough adult interaction) score,"PPD patient 1, Day 7",6
same,BIMF item 8 Δ vs Day 0,"PPD patient 1, Day 7",0
same,BIMF item 9 (getting enough encouragement from other people) score,"PPD patient 1, Day 7",6
same,BIMF item 9 Δ vs Day 0,"PPD patient 1, Day 7",1
same,BIMF item 10 (I trust my own feelings (instincts)) score,"PPD patient 1, Day 7",6
same,BIMF item 10 Δ vs Day 0,"PPD patient 1, Day 7",1
same,BIMF item 11 (a little time each week to do something for myself) score,"PPD patient 1, Day 7",6
same,BIMF item 11 Δ vs Day 0,"PPD patient 1, Day 7",1
